Data from the METLIN SMRT retention time set (Domingo-Almenara et al. 2019).

assay: gradient 5% acetonitrile 3 min, to 50% in 2 min, to 85% in 15 min, held 3 min, 100 µL/min; settings: column: Zorbax Extend-C18 2.1 x 50 mm; eluents: water / acetonitrile, 0.1% formic acid
Method in brief: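 In both positive and negative ionization mode, a quadrupole time-of-flight mass spectrometer coupled to HPLC analyzed pure standards run in mixtures of ~100 molecules. The Zorbax Extend-C18 column (2.1 × 50 mm, 1.8 μm) was operated at 100 μL/min with water and acetonitrile, each containing 0.1% formic acid. The dead volume was 40 μL and the dwell volume 900 μL. Retention time came from adduct peaks that were computationally picked and individually inspected by hand.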

In order of falling RP-LC retention time:
1. CCOc1nc2ccccc2nc1N1CCCC(C(=O)Nc2cccc(C(F)(F)F)c2)C1 (centres undefined)  1370 s
2. Cc1nn(-c2nc(-c3ccc(Cl)cc3)cs2)c(C)c1CC(=O)N1CCc2ccccc2C1  1330 s
3. CCCN1C(=O)COc2ccc(-c3noc(-c4ccccc4C(F)(F)F)n3)cc21  1230 s
4. Cc1ccc2c(c1)OCC(=O)N2Cc1nc(-c2cccc(Br)c2)no1  1180 s
5. COc1ccccc1-c1nnc(-c2cc(S(=O)(=O)N3CCC(C)CC3)ccc2Cl)o1  1160 s
6. COc1ccc(Cl)cc1NC(=O)CSc1nnc2c3cc(-c4ccc(C)c(C)c4)nn3ccn12  1130 s
7. CCc1noc(-c2ccnc(-n3ncc(C(=O)NCC4CC4)c3C)c2)n1  1110 s
8. O=c1c2sccc2n(Cc2nc(-c3cccc(Br)c3)no2)c(=O)n1Cc1ccccc1  1110 s
9. COc1ccc(-c2nc(-c3ccc4c(c3)oc(=O)n4C(C)C)no2)c(OC)c1  1080 s
10. Cc1c(-c2noc(-c3ccc(F)cc3)n2)nnn1Cc1ccc(F)cc1  1060 s
11. COc1ccc(CC(=O)N2CCc3cc(-c4csc(C)n4)ccc32)cc1  1060 s
12. O=c1n(Cc2cccc(Cl)c2)nc2ccc(S(=O)(=O)N3CCCCCC3)cn12  1040 s
13. O=C1N(c2cccc(F)c2)c2ncccc2S(=O)(=O)N1Cc1ccccc1  1020 s
14. Cc1nc(-c2ccccc2)cc2nn(CC(=O)Nc3cc(F)cc(F)c3)c(=O)n12  998 s
15. CC(C)CC(=O)NCC(c1ccccc1Cl)c1c[nH]c2ccccc12 (centres undefined)  984 s
16. COC(=O)c1ccc(NC(=O)C2CCCN(S(=O)(=O)c3cc(-c4noc(C)n4)cs3)C2)cc1 (centres undefined)  984 s
17. CCc1cccc(C)c1NC(=O)C1CCN(S(=O)(=O)c2c(C)nn(-c3ccccc3)c2C)CC1  976 s
18. O=C(Cn1nc2c3cc(-c4ccc(F)cc4)nn3ccn2c1=O)N1CCCc2ccccc21  968 s
19. O=c1n(Cc2ccc(F)cc2)nc2c(S(=O)(=O)N3CCCCCC3)cccn12  956 s
20. Cc1cccc(-n2c(N3CCCC(C(=O)NCc4ccccc4Cl)C3)nc3ccsc3c2=O)c1 (centres undefined)  956 s
21. CCOC(=O)c1cnc2nc(-c3ccccc3Cl)nn2c1C  945 s
22. O=C(C1c2ccccc2CCN1C(=O)C1CC1)N1CCN(c2ccc(F)cc2)CC1 (centres undefined)  943 s
23. CCCc1noc(-c2ccc3nnc(CC(=O)Nc4ccc(C)cc4F)n3c2)n1  940 s
24. COc1ccc(F)cc1S(=O)(=O)NCC1(c2cccs2)CC1  933 s
25. CCCS(=O)(=O)N1CC(=O)N(c2ccc(F)cc2C)C(C)(C(=O)NC2CCCCC2)C1 (centres undefined)  925 s
26. Cc1nn(CC(=O)NCc2ccc(F)cc2F)c(=O)c2nc(-c3ccccc3)sc12  914 s
27. COc1ccc(Cn2nc3c(S(=O)(=O)N4CCN(c5ccc(F)cc5)CC4)cccn3c2=O)cc1  905 s
28. Cc1cc(N2CCC(NC(=O)Nc3cccc(F)c3C)C2=O)ccc1F (centres undefined)  904 s
29. COC(=O)C1=CN(C2CC2)c2cc(N3CCN(c4ccccc4OC)CC3)c(F)cc2S1(=O)=O  904 s
30. CC(Cc1ccco1)NC(=O)Cn1cccc1-c1nnc(-c2ccccc2)o1 (centres undefined)  898 s
31. O=C1CC(c2ccc(F)cc2)Cc2c1cnn2-c1nc2ccccc2[nH]1 (centres undefined)  891 s
32. CCCCOC(=O)C1=C(C)NC(=O)NC1c1ccc(OCCC)c(OC)c1 (centres undefined)  884 s
33. COc1ccc(-c2cn3c(CC(=O)Nc4ccc(Cl)c(C(F)(F)F)c4)csc3n2)cc1OC  882 s
34. O=C(NCc1ccc(-c2noc(Cc3cccc(F)c3)n2)s1)C1CC1  879 s
35. Cc1nnc2ccc(-c3noc(-c4ccccc4)n3)cn12  867 s
36. Cn1c(N2CCCCS2(=O)=O)nc(C(=O)NCc2ccc(F)cc2)c(O)c1=O  864 s
37. Cc1nn(-c2ccc(F)cc2)c(C)c1S(=O)(=O)N1CCC(C(=O)NCc2cccs2)CC1  861 s
38. COCCn1c(C)c(C)c(S(=O)(=O)c2ccc(C)cc2)c1NC(=O)C1CCCO1 (centres undefined)  859 s
39. CCC(=O)N(CC(=O)N1CCc2sccc2C1COc1cccc(OC)c1)CC1CCCO1 (centres undefined)  858 s
40. COc1ccc(OCc2noc(CNC(=O)CSc3nc4ccccc4s3)n2)cc1  855 s
41. COCCNC(=O)C1Cc2ccccc2CN1S(=O)(=O)c1cccc(C)c1 (centres undefined)  845 s
42. COc1ccc(C(=O)Nc2nnc(SCc3nnc(-c4ccccc4)o3)s2)cc1OC  830 s
43. COc1ccc(C(=O)COc2ccccc2OC)cc1  825 s
44. Cc1nc(N2CCOCC2)c2c(C(=O)Nc3ccccc3F)c(C)oc2n1  805 s
45. COc1ccc(OC)c(NC(=O)C2CCCN2S(=O)(=O)c2ccc3c(c2)NC(=O)CO3)c1 (centres undefined)  803 s
46. Cc1cc(C)c(-c2noc(C)n2)c(NC(=O)c2ccc(Cl)cc2)n1  790 s
47. Cn1nc(-c2nc(-c3ccc(F)cc3)no2)c2c1CCN(C(=O)C1CCCO1)C2 (centres undefined)  789 s
48. CN1C(=O)c2cccnc2Sc2cc(NC(=O)c3ccccc3Cl)ccc21  781 s
49. O=C(Nc1cnn(-c2ncncc2N2CCSCC2)c1)C1CCCCC1  778 s
50. COc1ccc(Cn2c(=O)c3ccnn3c3ccc(C(=O)O)cc32)cc1  777 s
51. CSc1cccc(NC(=O)N2CCN(Cc3nc4ccc(C)cc4o3)CC2)c1  776 s
52. CCOC(=O)CCC(=O)NCC1CN(c2ccc(Cl)c(Cl)c2)C(=O)O1 (centres undefined)  774 s
53. CN1C(=O)c2cccnc2Sc2cc(C(=O)NC3CCCCC3)ccc21  773 s
54. CCOc1ccc(N(Cc2nc3nc(C)cc(C)n3n2)C(=O)c2ccco2)cc1  754 s
55. COc1ccc(C(O)CN2CCN(c3ncccn3)CC2)cc1 (centres undefined)  747 s
56. O=C1NCCOCCN(S(=O)(=O)c2cccc3cccnc23)[C@@H]2CCCC[C@H]12  735 s
57. CCC1CCCCN1C(=O)c1cnc2nc(C)ccc2c1Nc1cc(Cl)ccc1OC (centres undefined)  731 s
58. Brc1cccc(-c2nc3ccccn3c2Nc2ccc3c(c2)OCO3)c1  726 s
59. CCCNc1c(C(=O)OC)c(=O)[nH]c2c(Cl)cccc12  724 s
60. Cc1[nH]nc(-c2ccc(S(=O)(=O)NC3CC3)o2)c1C  723 s
61. FC(F)(F)c1cnc(N2CCN(Cc3ccccc3)CC2)c(Cl)c1  717 s
62. O=C(NCC1CCN(C(=O)Nc2ccc(F)cc2)CC1)c1ccccc1Cl  713 s
63. Cc1cc2c(=O)n(CC(=O)Nc3ccc(C(F)(F)F)cc3)ccc2s1  706 s
64. Cc1noc(C)c1CNC(=O)Cc1ccccc1F  696 s
65. O=C(NCC1CCN(C(=O)Oc2ccccc2)CC1)c1cnccn1  689 s
66. Cn1nnc2cc(CNC(=O)c3ccc(F)cc3)ccc21  686 s
67. Cc1ccccc1NC(=O)NCC(c1cccnc1)c1cn(C)c2ccccc12 (centres undefined)  680 s
68. CCNC(=O)C1CCCN(C(=O)Nc2ccc(NC(=O)Nc3ccc(OC)cc3)cc2)C1 (centres undefined)  678 s
69. CCC(=O)N(C1CCOCC1)C1CCN(Cc2cn(CC)c3ccccc23)CC1  674 s
70. O=C(Nc1nc(CC(=O)N2CCN(c3ncccn3)CC2)cs1)C1CCCC1  669 s
71. Cc1nnc2c(=O)n(CC(=O)NC3CCCCC3)c3cccnc3n12  668 s
72. CCN(CC)C(=O)C1CCCN(C(=O)c2nn(C)c3c2CN(C(=O)c2ccco2)CC3)C1 (centres undefined)  658 s
73. NC(=O)c1ccc(-n2cccc2)nc1  650 s
74. Cc1noc(C)c1Cc1ccc(C(=O)N2CCCC(c3[nH]ccc3C(N)=O)C2)o1 (centres undefined)  649 s
75. O=S(=O)(NCc1ccccn1)c1ccc(F)c(Cl)c1  643 s
76. Cc1ncoc1C(=O)N1CCC(c2noc(-c3cccnc3)n2)C1 (centres undefined)  640 s
77. CNC(=O)C1CCN(C(=O)Nc2ccc(NC(=O)Nc3ccc(OC)cc3)cc2)CC1  638 s
78. O=C(NC1CC(=O)N(C2CC2)C1)c1cc2ccccc2[nH]1 (centres undefined)  638 s
79. O=C1Nc2cc(C(=O)N3CCN(c4ccc(Cl)cc4)CC3)ccc2N2CCCCC12 (centres undefined)  638 s
80. O=C(c1ccco1)N1CCC(n2c(C3CCCC3)nc3cccnc32)C1 (centres undefined)  625 s
81. O=C1NCCCCCN(Cc2ccc(F)cc2F)[C@H]2CCC[C@@H]12  623 s
82. Cc1ccc2c(=O)c3c([nH]c2c1C)CCN(CC(=O)NC1CCCCC1)C3  619 s
83. Cc1cnc(C)n1CC1CCN(S(=O)(=O)Cc2ccccc2)C1 (centres undefined)  618 s
84. OC(COCc1ccc(Cl)cc1)CN1CCCCC1 (centres undefined)  580 s
85. Cc1noc([C@@H]2CN(Cc3ccc(F)cc3F)C[C@H]2CO)n1  580 s
86. OC(COc1ccc(Br)cc1Br)CN1CCCC1 (centres undefined)  576 s
87. O=C(C1CCN(c2ccncc2)CC1)N1CCN(c2ncccn2)CC1  570 s
88. c1ccc(N2CCN(c3c4c(nc5ncnn35)CCC4)CC2)nc1  563 s
89. O=C1C(O)C2(CCCCC2)N1C1CCN(Cc2ccc(F)c(F)c2)CC1 (centres undefined)  548 s
